Experimental data reported in patent EP0083750A1, “Antimycotic azolyl butanols” (BAYER AG, priority 1981, dated 1983).
≈ marks a conversion by molar mass, not a printed value.

Legend:
Candida albicans = assay: Antimycotic in-vitro activity, serial dilution test (MIC); format: cell-based; details: Reihenverdünnungstest, 5 x 10^4 Keimen/ml Substrat, Fleischextrakt-Traubenzucker-Bouillon, 20°C, 24 bis 96 Stunden, read-out: MHK-Werte in γ/ml Nährmedium, Candida albicans
Protocol: (§1) Versuchsbeschreibung: • Die in-vitro-Prüfungen wurden im Reihenverdünnungstest mit Keiminokula von durchschnittlich 5 x 10^4 Keimen/ml Substrat durchgeführt. Als Nährmedium dienten • a) für Dermatophyten und Schimmelpilze: Sabourand's milieu d'epreuve • b) für Hefen: • Fleischextrakt-Traubenzucker-Bouillon.
(§2) Die Bebrütungstemperatur betrug 20°C, die Bebrütungsdauer lag bei 24 bis 96 Stunden bei Hefen und 96 Stunden bei Dermatophyten und Schimmelpilzen.

Trichophyton mentagr. = assay: as above; format: cell-based; details: 96 h, Reihenverdünnungstest, 5 x 10^4 Keimen/ml Substrat, Sabourand's milieu d'epreuve, 20°C, 96 Stunden, read-out: MHK-Werte in γ/ml Nährmedium, Trichophyton mentagr.
Protocol: as §1, §2

Candida-Zellen = assay: Antimycotic in-vivo activity (oral) in mouse candidosis; parameters: species or system Mäuse vom Typ SPF-CF1; key to Wirkung (Überlebende am 6.Tag p.i.): +++++: = sehr gute Wirkung = 90 % Überlebende am 6.Tag p.i.; ++++: = gute Wirkung = 80 % Überlebende am 6.Tag p.i.; +++: = Wirkung = 60 % Überlebende am 6.Tag p.i.; ++: = schwache Wirkung = 40 % Überlebende am 6.Tag p.i.; +: = Spur Wirkung = unter 40 % Überlebende am 6. Tag; k.W.: = keine Wirkung; details: for Wirkung (Überlebende am 6.Tag p.i.): Mäuse SPF-CF1, intravenös infiziert mit 1 - 2 x 10^6 Candida-Zellen, jeweils 50 - 100 mg/kg oral, 1 Stunde vor und 7 Stunden nach Infektion; for Wirkung im Vergleich zu den bekannten Verbindungen (A) und (B): Mäusecandidose, oral
Protocol: Antimykotische in-vivo-Wirksamkeit (oral) bei Mäusecandidose
Mäuse vom Typ SPF-CF1 wurden intravenös mit 1 - 2 x 10^6 logarithmisch wachsenden Candida-Zellen, die in physiologischer Kochsalzlösung suspendiert werden, infiziert. Eine Stunde vor und sieben Stunden nach der Infektion werden die Tiere mit jeweils 50 - 100 mg/kg Körpergewicht der Präparate oral behandelt.
Unbehandelte Tiere starben 3 bis 6 Tage post infektionem. Die Überlebensrate am 6. Tag post infektionem betrug bei unbehandelten Kontrolltieren etwa 5 %.

[1] = test system: Trichophyton von mentagrophytes; assay: Antimycotic in-vivo activity (local) in experimental guinea pig trichophytosis; details: Meerschweinchen-Trichophytie, lokal
Description: Antimikrobielle in-vivo-Wirksamkeit (lokal) am Modell der experimentellen Meerschweinchen-Trichophytie
Weiße Mäuse der Rasse Pirbright-white wurden auf dem geschorenen, nicht skarifizierten Rücken mit einer Mikro-und Makrokonidien-Suspension von Trichophyton von mentagrophytes infiziert.
Die infizierten Tieren wurden, beginnend mit dem 3. Tag p.i., 1 x täglich mit einer 15%-igen Lösung der erfindungsgemäßen Präparate (in Dimethylsulfoxid : Glycerin = 1 : 4) lokal behandelt.
Bei unbehandelten Tieren entwickelte sich innerhalb 12 Tagen p.i. das typische Bild einer Dermatophytose mit Rötung, Schuppung und Haarausfall bis zum totalen Integument-Defekt an der Infektionsstelle.

Torulopsis glabrata = assay: Antimycotic in-vitro activity, serial dilution test (MIC); format: cell-based; details: Nakaseomyces glabratus; Reihenverdünnungstest, 5 x 10^4 Keimen/ml Substrat, Fleischextrakt-Traubenzucker-Bouillon, 20°C, 24 bis 96 Stunden; read-out: MHK-Werte in γ/ml Nährmedium, Torulopsis glabrata
Protocol: as §1, §2

Microsporum canis = assay: as above; format: cell-based; details: 96 h, Reihenverdünnungstest, 5 x 10^4 Keimen/ml Substrat, Sabourand's milieu d'epreuve, 20°C, 96 Stunden, read-out: MHK-Werte in γ/ml Nährmedium, Microsporum canis
Protocol: as §1, §2

Aspergillus fumig. = assay: as above; format: cell-based; details: 96 h, Reihenverdünnungstest, 5 x 10^4 Keimen/ml Substrat, Sabourand's milieu d'epreuve, 20°C, 96 Stunden, read-out: MHK-Werte in γ/ml Nährmedium, Aspergillus fumig.
Protocol: as §1, §2

[2] = test system: Dermatophyten, Schimmelpilze, Hefen; assay: Antimycotic in-vitro activity, serial dilution test, overall comparison with prior art; format: cell-based; details: in-vitro Reihenverdünnungstest
Protocol: as §1, §2

SMILES	MIC (Candida albicans)	MIC (Trichophyton mentagr.)	MIC (Torulopsis glabrata)	MIC (Microsporum canis)	MIC (Aspergillus fumig.)	Wirkung (Überlebende am 6.Tag p.i.) (Candida-Zellen)	Wirkung [1]	Wirkung im Vergleich zu den bekannten Verbindungen (A) und (B) (Candida-Zellen)	antimykotische Wirkung im Vergleich zu den bekannten Verbindungen (A) und (B) [2]
CC(C(O)c1ccc(Cl)cc1)n1cncn1 (centres unmarked) [(A), reference compound]	> 64 µg/mL	> 64 µg/mL	–	–	–	k.W.	–	–	–
CC(C)(COc1ccc(Cl)cc1)C(O)C(CC1CCCCC1)n1ccnc1 (centres unmarked) [Beispiel 20]	< 1 µg/mL	< 1 µg/mL	8 µg/mL (≈ 20.5 µM)	4 µg/mL (≈ 10.2 µM)	4 µg/mL (≈ 10.2 µM)	++++ (= gute Wirkung = 80 % Überlebende am 6.Tag p.i.)	gute bis sehr gute Wirkung	bessere Wirkung	bessere antimykotische Wirkung
CC(C)(Cc1ccc(Cl)cc1)C(O)C(Cc1ccccc1)n1ccnc1 (centres unmarked) [Beispiel 128]	< 1 µg/mL	< 1 µg/mL	8 µg/mL (≈ 21.7 µM)	16 µg/mL (≈ 43.4 µM)	8 µg/mL (≈ 21.7 µM)	++++ (= gute Wirkung = 80 % Überlebende am 6.Tag p.i.)	–	bessere Wirkung	bessere antimykotische Wirkung
OC(Cn1cncn1)c1ccc(-c2ccc(Cl)cc2)cc1 (centres unmarked) [(B), reference compound]	> 64 µg/mL	4 µg/mL (≈ 13.3 µM)	–	> 64 µg/mL	> 64 µg/mL	k.W.	–	–	–
CC(C)(COc1ccc(Cl)cc1)C(O)C(CC1CCCCC1)n1cncn1 (centres unmarked) [Beispiel 2, 1-(4-Chlorphenoxy)-5-cyclohexyl-2,2-dimethyl-4-(1,2,4-triazol-1-yl)-pentan-3-ol]	< 1 µg/mL	< 1 µg/mL	< 1 µg/mL	2 µg/mL (≈ 5.1 µM)	2 µg/mL (≈ 5.1 µM)	–	–	–	bessere antimykotische Wirkung
CCC(C(O)C(C)(C)Oc1ccc(Cl)cc1)n1cncn1 (centres unmarked) [Beispiel 57]	8 µg/mL (≈ 25.8 µM)	8 µg/mL (≈ 25.8 µM)	32 µg/mL (≈ 103 µM)	8 µg/mL (≈ 25.8 µM)	32 µg/mL (≈ 103 µM)	–	–	–	bessere antimykotische Wirkung
CC(C)(Oc1ccc(Cl)cc1)C(O)C(Cc1ccc(Cl)cc1Cl)n1cncn1 (centres unmarked) [Beispiel 27]	< 1 µg/mL	< 1 µg/mL	< 1 µg/mL	4 µg/mL (≈ 9.08 µM)	> 64 µg/mL	–	–	–	bessere antimykotische Wirkung
CC(C)(CSc1ccc(Cl)cc1)C(O)C(Cc1ccc(Cl)cc1Cl)n1cncn1 (centres unmarked) [Beispiel 39]	< 1 µg/mL	< 1 µg/mL	< 1 µg/mL	16 µg/mL (≈ 34 µM)	64 µg/mL (≈ 136 µM)	–	–	–	bessere antimykotische Wirkung
CC(C)(Oc1ccc(Cl)cc1Cl)C(O)C(Cc1ccccc1)n1cncn1 (centres unmarked) [Beispiel 28]	16 µg/mL (≈ 39.4 µM)	2 µg/mL (≈ 4.92 µM)	64 µg/mL (≈ 158 µM)	4 µg/mL (≈ 9.84 µM)	16 µg/mL (≈ 39.4 µM)	–	–	–	bessere antimykotische Wirkung
CC(C)(CSc1ccccc1)C(O)C(Cc1ccc(Cl)cc1)n1cncn1 (centres unmarked) [Beispiel 37]	4 µg/mL (≈ 9.95 µM)	< 1 µg/mL	2 µg/mL (≈ 4.98 µM)	4 µg/mL (≈ 9.95 µM)	64 µg/mL (≈ 159 µM)	–	–	–	bessere antimykotische Wirkung

Now from value to compound, other results behind:

MIC (Candida albicans)	MIC (Trichophyton mentagr.)	MIC (Torulopsis glabrata)	MIC (Microsporum canis)	MIC (Aspergillus fumig.)	SMILES	Wirkung (Überlebende am 6.Tag p.i.) (Candida-Zellen)	Wirkung [1]	Wirkung im Vergleich zu den bekannten Verbindungen (A) und (B) (Candida-Zellen)	antimykotische Wirkung im Vergleich zu den bekannten Verbindungen (A) und (B) [2]
< 1 µg/mL	< 1 µg/mL	< 1 µg/mL	< 1 µg/mL	4 µg/mL (≈ 10.1 µM)	CCCCC(C(O)C(C)(C)COc1ccc(Br)cc1)n1cncn1 (centres unmarked) [Beispiel 46]	++++ (= gute Wirkung = 80 % Überlebende am 6.Tag p.i.)	gute bis sehr gute Wirkung	bessere Wirkung	bessere antimykotische Wirkung
< 1 µg/mL	< 1 µg/mL	< 1 µg/mL	< 1 µg/mL	64 µg/mL (≈ 141 µM)	CC(C)(COc1ccc(Cl)cc1)C(O)C(Cc1ccc(Cl)cc1Cl)n1cncn1 (centres unmarked) [Beispiel 11]	++ (= schwache Wirkung = 40 % Überlebende am 6.Tag p.i.)	gute bis sehr gute Wirkung	bessere Wirkung	bessere antimykotische Wirkung
8 µg/mL (≈ 20.3 µM)	< 1 µg/mL	32 µg/mL (≈ 81.3 µM)	8 µg/mL (≈ 20.3 µM)	4 µg/mL (≈ 10.2 µM)	CCCCC(C(O)C(C)(C)COc1ccc(-c2ccccc2)cc1)n1cncn1 (centres unmarked) [Beispiel 100]	+++ (= Wirkung = 60 % Überlebende am 6.Tag p.i.)	–	bessere Wirkung	bessere antimykotische Wirkung
4 µg/mL (≈ 12.4 µM)	8 µg/mL (≈ 24.9 µM)	8 µg/mL (≈ 24.9 µM)	4 µg/mL (≈ 12.4 µM)	8 µg/mL (≈ 24.9 µM)	C=CCC(C(O)C(C)(C)Oc1ccc(Cl)cc1)n1cncn1 (centres unmarked) [Beispiel 56]	–	–	–	bessere antimykotische Wirkung
< 1 µg/mL	< 1 µg/mL	2 µg/mL (≈ 4.81 µM)	8 µg/mL (≈ 19.2 µM)	16 µg/mL (≈ 38.5 µM)	COc1cccc(CC(C(O)C(C)(C)COc2ccc(Cl)cc2)n2cncn2)c1 (centres unmarked) [Beispiel 87]	++ (= schwache Wirkung = 40 % Überlebende am 6.Tag p.i.)	–	bessere Wirkung	bessere antimykotische Wirkung
8 µg/mL (≈ 24.7 µM)	4 µg/mL (≈ 12.4 µM)	32 µg/mL (≈ 98.8 µM)	4 µg/mL (≈ 12.4 µM)	16 µg/mL (≈ 49.4 µM)	COCC(C)(C)C(O)C(Cc1ccc(Cl)cc1)n1cncn1 (centres unmarked) [Beispiel 9]	–	–	–	bessere antimykotische Wirkung
2 µg/mL (≈ 5.37 µM)	< 1 µg/mL	8 µg/mL (≈ 21.5 µM)	2 µg/mL (≈ 5.37 µM)	8 µg/mL (≈ 21.5 µM)	CCCCC(C(O)C(C)(C)Oc1ccc(Cl)cc1Cl)n1cncn1 (centres unmarked) [Beispiel 51]	–	–	–	bessere antimykotische Wirkung
8 µg/mL (≈ 22.3 µM)	8 µg/mL (≈ 22.3 µM)	16 µg/mL (≈ 44.7 µM)	8 µg/mL (≈ 22.3 µM)	64 µg/mL (≈ 179 µM)	COCC(C)(C)C(O)C(Cc1ccc(Cl)cc1Cl)n1cncn1 (centres unmarked) [Beispiel 7]	–	–	–	bessere antimykotische Wirkung
2 µg/mL (≈ 5.2 µM)	< 1 µg/mL	32 µg/mL (≈ 83.3 µM)	< 1 µg/mL	8 µg/mL (≈ 20.8 µM)	C=CCCC(C(O)C(C)(C)COc1ccc(Cl)c(Cl)c1)n1cncn1 (centres unmarked) [Beispiel 95]	–	–	–	bessere antimykotische Wirkung
